Measurements as given in US4904672A, “Derivatives of 3-hydroxyazabenzo[b]thiophene useful as 5-lipoxygenase inhibitors” (Merck & Co., Inc., priority 1988, dated 1990).

Columns and labels:
[1] = test system: Brewer's yeast-induced hyperalgesia (pain response); test: Brewer's Yeast Hyperalgesia Assay in the rat; format: in vivo, rat (female Sprague-Dawley); conditions: 3 mg/kg p.o.
Procedure: In this assay, which is sensitive to inhibition by lipoxygenase and cyclooxygenase inhibitors, compounds of formula I reduced the pain response induced by Brewer's yeast (Table 1a).
Groups of 10 female Sprague-Dawley rats, weighing 35-50 grams (Charles River Breeding Laboratories), were fasted overnight prior to testing. For each animal, 0.1 ml of the edema-inducing Brewer's yeast suspension (5% homogenate in physiological saline) was injected into the right hindpaw. Pain threshold was measured by applying pressure to the plantar surface of the hindpaw by means of a compressed air driven piston with a 2 mm. tip. Testing was carried out 3, 4, and 5 hours after the yeast injection. Compounds, prepared as homogenates in either 1% methylcellulose or aqueous vehicle, were administered orally 60 minutes before testing. A group of vehicle treated control animals was included in each experiment. Squeak pressure thresholds were measured and recorded for the compound and vehicle-treated groups of rats 3, 4, and 5 hours after administration of the Brewer's yeast (60 minutes after compound treatment). The estimation of analgesia was as follows: 1. the mean response pressure for the daily vehicle control group in the normal and inflammed foot was calculated; 2. for each compound treatment group, the number of animals with response pressures equal to or greater than 25 mm Hg was noted. These animals were considered to be analgesic.

[2] = molecular target: T1, PMN 5-lipoxygenase (Rattus norvegicus, UniProt P12527); test: Inhibition of PMN 5-lipoxygenase in the rat (LTB4 by RIA, A23187-stimulated PMN); format: cell-based, rat (male Sprague-Dawley); conditions: for inhibition at 100 µg/mL: dose 0.1 mg/ml; for inhibition at 300 µg/mL: dose 0.3 mg/ml; for inhibition at 1000 µg/mL: dose 1 mg/ml; for inhibition at 30 µg/mL: dose 0.03 mg/ml; for inhibition at 37 µg/mL: dose 0.037 mg/ml
T1 sequence (P12527 1-673): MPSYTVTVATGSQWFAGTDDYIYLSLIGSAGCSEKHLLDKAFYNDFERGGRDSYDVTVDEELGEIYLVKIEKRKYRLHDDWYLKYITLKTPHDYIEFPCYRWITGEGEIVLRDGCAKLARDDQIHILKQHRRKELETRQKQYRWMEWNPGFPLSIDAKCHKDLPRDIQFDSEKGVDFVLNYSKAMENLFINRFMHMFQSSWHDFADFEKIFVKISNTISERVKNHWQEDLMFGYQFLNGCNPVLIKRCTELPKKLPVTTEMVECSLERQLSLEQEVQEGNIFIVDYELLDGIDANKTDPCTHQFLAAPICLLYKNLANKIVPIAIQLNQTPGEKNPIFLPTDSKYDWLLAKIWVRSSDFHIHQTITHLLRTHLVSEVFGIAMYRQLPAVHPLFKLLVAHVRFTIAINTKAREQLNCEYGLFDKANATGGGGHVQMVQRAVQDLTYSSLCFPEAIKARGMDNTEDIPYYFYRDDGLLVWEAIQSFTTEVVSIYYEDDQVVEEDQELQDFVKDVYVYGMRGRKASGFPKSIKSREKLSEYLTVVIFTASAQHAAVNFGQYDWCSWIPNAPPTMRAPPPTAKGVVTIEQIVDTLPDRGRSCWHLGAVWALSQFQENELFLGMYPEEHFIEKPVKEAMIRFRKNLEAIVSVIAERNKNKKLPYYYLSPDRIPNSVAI
Procedure: 2. Inhibition of PMN 5-lipoxygenase in the rat Methods
Male Sprague-Dawley rates under ether anesthesia were injected i.p. with 8 mls of 12% aqueous sodium caseinate. After 15-24 hours the animals were sacrificed with CO2 and the peritoneal cavities were lavaged with Eagles MEM with Earles salts and containing L-glutamine and 30 mM HEPES. The pH was adjusted to 7.4. The lavage fluid was centrifuged for 5 minutes at 350×g at room temperature. The cells were resuspended in fresh medium and filtered through lens paper. The cells were pelleted again and reconstituted to concentration of 1×10^7 cells/ml with fresh medium.
The experiments were run as follows: 0.5μ of test compound in DMSO or 0.5 μl DMSO alone was added to reaction tubes. 0.5 ml aliquots of the stirred PMN suspension maintained at 37° C. were then added. After 2 minutes, 0.5 μl of 10 mM A23187 (final concentration=10 μM) or 0.5 μl of DMSO was added and allowed to incubate for 4 additional minutes at 37° C. The reaction was stopped by the addition of 0.5 ml of cold methanol. The precipitated proteins were removed by centrifugation and the supernatant fluid was analyzed via RIA or HPLC.
Radioimmunoassay determinations of LTB4
Radioimmunoassays were performed using the dextran-coated charcoal binding method as described by J. L. Humes in Methods for Studying Mononuclear Phagocytes (Eds. D. Adams et al.) p. 641, Academic Press, N.Y. (1981).
Aliquots, 2 μl, of the supernatant fluids were added to assay tubes and incubated for 10 minutes at 37° C. to remove methanol. Fifty μl of tissue culture medium M-199 containing 1 percent heat-inactivated-porcine serum was then added to each tube. Standard amounts of LTB4 were also prepared in this medium so that 50 μl aliquots contained 25-1000 pg. Antisera to LTB4 was diluted 1:3000 with 10 mM potassium phosphate, pH 7.3 containing 1 mM ethylenediaminetetracetic acid and 0.25 mM thimerasol (PET buffer). Aliquots, 100 μl, of the diluted antisera were added to both standard and unknown tubes and incubated at room temperature for 0.5 hour. (5,6,8,9,11,12,14,15-^3 H)-LTB4 (Amersham, 150 Ci/mMol) was diluted with PET to a concentration of 1 nCi/ml. Aliquots, 100 μl , were added and the mixture incubated for 2 hours at room temperature or alternatively overnight at 4° C. One ml of dextran-coated charcoal solution is added to all tubes. After centrifugation for 10 minutes at 1000×g the radioactivity in the supernatant fluid was determined.
The dextran-coated charcoal removes the unbound ^3 H-LTB4. Therefore in this procedure the antibody-bound-^3 H-LTB4 is measured. The RIA^4 determinations are performed on single samples.

| SMILES | % Inhibition (yeast hyperalgesia) [1] [%] | inhibition at 100 µg/mL [2] [%] | inhibition at 300 µg/mL [2] [%] | further results |
| --- | --- | --- | --- | --- |
| CC(=O)Oc1c(-c2ccc(F)cc2)sc2ncccc12 [R=(CO)CH3, X1=H, X2=p-F, 7-aza-3-acetyloxy-2-(4-fluorophenyl)-benzo[b]thiophene] | 70 |  |  |  |
| COCC(=O)Oc1c(-c2ccccc2)sc2ncccc12 [R=(CO)CH2 OCH3, X1=H, X2=H] | 50 |  |  |  |
| CC(=O)Oc1c(-c2ccccc2)sc2nc(Cl)ccc12 [R=(CO)CH3, X1=6-Cl, X2=H] | 40 |  |  |  |
| COc1ccc(-c2sc3ncccc3c2O)cc1 [R=H, X1=H, X2=p-OCH3] | 60 |  |  |  |
| Cc1cc2sc(-c3ccccc3)c(O)c2c(C)n1 [N=5, R=H, X1=4-CH3,6-CH3, X2=H] |  | 43 | 90 | inhibition at 1000 µg/mL [2]: 99% |
| COc1ccc(-c2sc3cnccc3c2O)cc1 [N=6, R=H, X1=H, X2=p-OCH3, 3-Hydroxy-2-(4-methoxyphenyl)-6-azabenzo[b]thiophene] |  | 79 | 100 | inhibition at 30 µg/mL [2]: 45% |
| COc1ccc(-c2sc3c[n+]([O-])ccc3c2OC(C)=O)cc1 [drawing 25, N=6, R=(CO)CH3, X1=H] |  | 33 | 49 | inhibition at 1000 µg/mL [2]: 90% |
| COc1ccc(-c2sc3ncccc3c2OC(C)=O)cc1 [R=(CO)CH3, X1=H, X2=p-OCH3] | 10 |  |  |  |
| CC(=O)Oc1c(-c2ccccc2)sc2ccncc12 [N=5, R=(CO)CH3, X1=H, X2=H, 3-Acetyloxy-5-aza-2-phenylbenzo[b]thiophene] |  | 97 | 100 | inhibition at 37 µg/mL [2]: 58% |
| CC(=O)Oc1c(-c2ccccc2)sc2nc(Cl)ccc12 [N=7, R=(CO)CH3, X1=6-Cl, X2=H] |  | 63 | 82 | inhibition at 1000 µg/mL [2]: 100% |
| CC(=O)Oc1c(-c2ccccc2)sc2ncccc12 [R=(CO)CH3, X1=H, X2=H, 7-aza-3-acetyloxy-2-phenyl-benzo[b]thiophene] | 60 |  |  |  |
| COc1ccccc1-c1sc2ncccc2c1OC(C)=O [N=7, R=(CO)CH3, X1=H, X2=o-OCH3] |  | 73 | 100 | inhibition at 30 µg/mL [2]: 33% |
| COc1ccc2c(OC(C)=O)c(-c3ccccc3)sc2n1 [R=(CO)CH3, X1=6-OCH3, X2=H] | 60 |  |  |  |
| COc1cccc(-c2sc3ncccc3c2OC(C)=O)c1 [N=7, R=(CO)CH3, X1=H, X2=m-OCH3] |  | 97 | 100 | inhibition at 37 µg/mL [2]: 52% |
